The values that follow come from patent publication US20210092955A1, “METHOD OF CONTROLLING HERBICIDE RESISTANT WEEDS IN CROPS” (SUMITIMO CHEMICAL COMPANY, LIMITED, priority 2018, published 2021).

Type in all cases: in vivo
The test system of test [1] is waterhemp having Gly210 deletion in PPO2. Briefly: Herbicidal effect, foliar spray in greenhouse pots (Example 4610, comparison). Conditions: rating 0 to 100; 100 g/ha; foliar spray 200 L/ha; 4 days after treatment; known art comparison. An excerpt:
(§1) Plastic pots each having a diameter of 8 cm and a height of 7 cm were filled with the soil and seedlings of Amaranthus palmeri having Arg128Gly mutation in PPO2 (originated from Arkansas, USA) were planted. After cultivaited in a greenhouse for 42 days, an aqueous spray liquid prepared by diluting a predetermined amount of trifludimoxazin formulation (emulsifiable concentrate obtained by mixing 20 parts of trifludimoxazin with 80 parts liquid cocktail (5:1 mixture of cyclohexanone and Sorpol 2680X (TOHO Chemical Industry Co., Ltd.))) with water, and its mixture with saflufenacil made by additionally diluting a predetermined amount of commercial saflufenacil formulation (suspension concentrate containing 29.74% of saflufenacil, manufactured by BASF Corp. under the trade name of Sharpen) were separately sprayed over the weed using a sprayer in an amount of 200 L/ha uniformly. Then, the weeds were cultivated in a greenhouse for 4 days, followed by examininig the herbicidal effects on the weeds. For comparison, waterhemp having Gly210 deletion in PPO2 (originated from Illinois, USA), commercially available wild-type waterhemp, and commercially available wild-type Amaranthus palmeri were tested.

Another test concerns wild-type waterhemp. The description is as above. Conditions: rating 0 to 100; 100 g/ha; foliar spray 200 L/ha; 4 days after treatment.
From the text: as §1

Test [2] has as its system wild-type Amaranthus palmeri. The test can be described thus: Herbicidal effect, foliar spray in greenhouse pots (Example 4610). Conditions: rating 0 to 100; 100 g/ha; foliar spray 200 L/ha; 4 days after treatment.
From the text: as §1

Test [3] relates to Amaranthus palmeri having Arg128Gly mutation in PPO2. Described as above. Conditions: rating 0 to 100; 100 g/ha; foliar spray 200 L/ha; 4 days after treatment.
From the text: as §1

Test [4] relates to Amaranthus palmeri having Gly210 deletion in PPO2. Briefly: Herbicidal effect, foliar spray in greenhouse pots (Example 4609, comparison). Conditions: rating 0 to 100; 25 g/ha; foliar spray 216 L/ha; 17 days after treatment; known art comparison. An excerpt: (§2) Plastic pots each having a diameter of 8 cm and a height of 7 cm were filled with the soil and seedlings of Amaranthus palmeri having a Gly399Ala mutation in PPO2 (originated from Mississippi, USA) were planted. After cultivation in a greenhouse for 31 days, an aqueous spray liquid prepared by diluting a predetermined amount of a commercial saflufenacil formulation (suspension concentrate containing 29.74% of saflufenacil, manufactured by BASF Corp. under the trade name of Sharpen) with water was sprayed uniformly over the weed using a sprayer in an amount of 216 L/ha. Then, the weeds were cultivated in a greenhouse for 17 days, followed by examining the herbicidal effects. For comparison, Amaranthus palmeri having Gly210 deletion in PPO2 (originated from Illinois, USA) and commercially available wild-type Amaranthus palmeri were tested.

Test [5] concerns Amaranthus palmeri having a Gly399Ala mutation in PPO2. The test can be described thus: Herbicidal effect, foliar spray in greenhouse pots (Example 4609). Conditions: rating 0 to 100; 25 g/ha; foliar spray 216 L/ha; 17 days after treatment.
From the text: as §2

The test system of test [6] is wild-type Amaranthus palmeri. Described as above. Conditions: rating 0 to 100, 25 g/ha, foliar spray 216 L/ha, 17 days after treatment.
From the text: as §2

Test [7] relates to Amaranthus palmeri having an Arg128Met mutation in PPO2. The test can be described thus: Soil surface treatment on day of sowing weed and soybean (Example 2). Conditions: 10, 20, 40, or 80 g/ha on soil surface on day of sowing; examined after 21 days. An excerpt:
Amaranthus palmeri having an Arg128Met mutation in PPO2 and soybean are sown in a plastic pot. On the same day, a compound X is applied to the surface of soil in an amount of 10, 20, 40, or 80 g/ha by spraying 200 L/ha of an aqueous dilution containing the compound X. Then, the weeds and soybean are cultivated in a greenhouse to examine the effects on the weeds and phytotoxic effects on soybean after 21 days.

For test [8] the test system is unchanged. The test can be described thus: Foliar treatment 21 days after sowing (Example 3). Conditions: 10, 20, 40, or 80 g/ha foliar treatment 21 days after sowing; examined 14 days after the treatment. An excerpt: Amaranthus palmeri having an Arg128Met mutation in PPO2 and soybean are sown in a plastic pot. Then, the weeds and soybean are cultivated in a greenhouse. A compound X is applied in an amount of 10, 20, 40, or 80 g/ha by spraying 200 L/ha of an aqueous dilution containing the compound X to perform foliar treatment 21 days after the sowing. Then, the weeds and soybean are cultivated in a greenhouse to examine the effects on the weeds and phytotoxic effects on soybean 14 days after the treatment.

Test [9] has the same test system. The test can be described thus: Soil surface treatment before sowing soybean (Example 1). Conditions: 10, 20, 40, or 80 g/ha on soil surface on day of weed sowing; soybean sown after 7 days; examined after 14 days. An excerpt: Amaranthus palmeri having an Arg128Met mutation in PPO2 is sown in a plastic pot. On the same day, a compound X is applied to the surface of soil in an amount of 10, 20, 40, or 80 g/ha by spraying 200 L/ha of an aqueous dilution containing the […]. Then, the weeds are cultivated in a greenhouse and soybean seeds are sown after 7 days, to examine the effects on the weeds and phytotoxic effects on soybean after 14 days.

Structures are written as SMILES.

`C#CCN1C(=O)C(F)(F)Oc2cc(F)c(-n3c(=O)n(C)c(=S)n(C)c3=O)cc21` [Trifludimoxazin]: in test [1], the “herbicidal effect, waterhemp Gly210 deletion” value is reported as 50. Also, in the test with wild-type waterhemp, the “herbicidal effect, waterhemp Wild-type” value is 95. In addition, in [2], the “herbicidal effect, Amaranthus palmeri Wild-type” value was found to be 90. Besides, the “herbicidal effect, Amaranthus palmeri Arg128Gly mutation” value in test [3] turned out to be 88.
In the case of `CC(C)N(C)S(=O)(=O)NC(=O)c1cc(-n2c(=O)cc(C(F)(F)F)n(C)c2=O)c(F)cc1Cl` [Saflufenacil], the “herbicidal effect, Amaranthus palmeri Gly210 deletion” value in [4] was 65. Besides, in [5], the “herbicidal effect, Amaranthus palmeri Gly399Ala mutation” value was found to be 100. The “herbicidal effect, Amaranthus palmeri Wild-type” value in test [6] (Table 1) and in test [6] (Table 2) was 100 throughout.
In the case of `CCOC(=O)COc1ncccc1Oc1cc(-n2c(=O)cc(C(F)(F)F)n(C)c2=O)c(F)cc1Cl` [compound X, Ethyl [3-[2-chloro-4-fluoro-5-(1-methyl-6-trifluoromethyl-2,1-dioxo-1,2,3,1-tetrahydropyrimidine-3-yl)phenoxy]-2-pyridyloxy]acetate], the “effects on the weeds” value in test [7], in test [8] and in [9] was “valuable effect” in each case.
